Experiments:
B. cereus (+) = assay: Antibacterial MIC test (CLSI); assay type: cell-based; conditions: MHB liquid medium, 37° C., 24 hours
Experimental: (§1) The MIC test was conducted in accordance CLSI guidelines. […] As a positive control, Nofloxacin and Vancomycin were used.

B. subtilis (+) = assay: Antibacterial MIC test (CLSI); assay type: cell-based; conditions: MHB liquid medium, 37° C., 24 hours
Experimental: as §1

P. acnes (+) = assay: Antibacterial MIC test (CLSI); assay type: cell-based; conditions: MHB liquid medium, 37° C., 24 hours
Experimental: as §1

E. coli (−) = assay: Antibacterial MIC test (CLSI); assay type: cell-based; conditions: MHB liquid medium, 37° C., 24 hours
Experimental: as §1

B. coagulans (+) = assay: Antibacterial MIC test (CLSI); assay type: cell-based; conditions: MHB liquid medium, 37° C., 24 hours
Experimental: as §1

L. monocytogenes (+) = assay: Antibacterial MIC test (CLSI); assay type: cell-based; conditions: MHB liquid medium, 37° C., 24 hours
Experimental: as §1

S. aureus enterica (−) = assay: Antibacterial MIC test (CLSI); assay type: cell-based; conditions: MHB liquid medium, 37° C., 24 hours
Experimental: as §1

M. luteus (+) = assay: Antibacterial MIC test (CLSI); assay type: cell-based; conditions: MHB liquid medium, 37° C., 24 hours
Experimental: as §1

S. epidermidis (+) = conditions: MHB liquid medium, 37° C., 24 hours
Experimental: (§2) The antibacterial activities against Gram-positive bacteria, Gram-negative bacteria or multi-drug resistant bacteria were evaluated for the compounds of the present invention. The MIC test was conducted in accordance CLSI guidelines. E. coli(−), P. aeruginosa(−), and S. enterica(−) were used as Gram-negative bacteria, B. cereus(+), B. subtilis(+), B. coagulans(+), L. monocytogenes(+), M. luteus(+), P. acnes(+), S. epidermidis(+), and S. aureus(+) were used as Gram-positive bacteria. Methicillin-resistant Staphylococcus aureus (MRSA) was used as multi-drug resistant bacteria. The bacterial cells were incubated until the OD600 of the single colonies reached 0.1. […] Subsequently, bacterial cells were incubated at 37° C. for 24 hours, and then the MICs (μg/ ? ) were determined by visual reading and optical density detection at 600 nm (OD600). As a positive control, Nofloxacin and Vancomycin were used.

S. aureus (+) = conditions: MHB liquid medium, 37° C., 24 hours
Experimental: as §2

C. neoformans = conditions: RPMI1640 broth, 35° C., 72 hours, visual reading; expressed as a range value
Experimental: (§3) An in vitro antifungal susceptibility test was performed in accordance with the US Clinical and Laboratory Standards Institute (CLSI) guidelines to measure the degree of antifungal activity of the compounds synthesized in the Preparation Examples against opportunistic pathogenic fungi. […] The MIC value (μg/ ? ) is expressed as a range value. Specifically, Candida species and Cryptococcus neoformans were incubated in a Sabouraud dextrose agar (SDA) (Sigma-Aldrich) solid medium for 24 and 48 hours, respectively to obtain single colonies. The obtained single colonies were suspended in 0.85% physiological saline to prepare fungal cell suspension (1 to 5×10^6 cells/ ? ). Fungal cells 2000-fold diluted in RPMI1640 broth (Sigma-Aldrich) were seeded on 96-well plates (5×10^2 to 2.5×10^3 cells/ ? , 195 ? /well). Serial two-fold dilutions (128, 64, 32, 16, 8, 4, 2, 1, and 0.5 μg/ ? ) of compounds were prepared by diluting the compounds synthesized according to the above preparation examples. Then, 5 ? from each dilution was added to the well of the 96-well plate containing fungal cell suspension to give a final suspension of 200 ? per well. […] As a positive control, amphotericin B (AMB), which is highly toxic to the human body but is known as a representative antifungal agent, was used.

A. fumigatus = conditions: visual reading; expressed as a range value
Experimental: as §3

C. albicans = conditions: RPMI1640 broth, 35° C., 48 hours, visual reading; expressed as a range value
MRSA = assay: Antibacterial MIC test (CLSI); assay type: cell-based, Methicillin-resistant Staphylococcus aureus; conditions: MHB liquid medium, 37° C., 24 hours
Experimental: as §1

C. glabrata = conditions: RPMI1640 broth, 35° C., 48 hours, visual reading; expressed as a range value
Experimental: as §3

Structure (SMILES) | MIC B. cereus (+) (B. cereus (+)) | MIC B. subtilis (+) (B. subtilis (+)) | MIC P. acnes (+) (P. acnes (+)) | MIC E. coli (−) (E. coli (−)) | MIC B. coagulans (+) (B. coagulans (+)) | MIC L. monocytogenes (+) (L. monocytogenes (+)) | MIC S. aureus enterica (−) (S. aureus enterica (−)) | MIC M. luteus (+) (M. luteus (+)) | MIC S. epidermidis (+) (S. epidermidis (+)) | MIC S. aureus (+) (S. aureus (+)) | MIC (μg/mL) C. neoformans (C. neoformans) | MIC (μg/mL) A. fumigatus (A. fumigatus) | MIC (μg/mL) C. albicans (C. albicans) | MIC MRSA (MRSA) | MIC (μg/mL) C. glabrata (C. glabrata)
CCCCC(NC)C(=O)NCCc1ccc(-c2ccc(OC(F)(F)F)cc2)cc1.Cl (racemic) [Compound 91, (R)/(S)-2-(methylamino)-N-(2-(4′-(trifluoromethoxy)-[1,1′-biphenyl]-4-yl)ethyl)hexanamide hydrochloride] | 16 µg/mL | 16 µg/mL | <4 µg/mL | 8 µg/mL | <4 µg/mL | <4 µg/mL | 16 µg/mL | <4 µg/mL | <4 µg/mL | 8 µg/mL | 2~8 μg/mL | 4~16 μg/mL | 4~16 μg/mL | 8 µg/mL | 4~16 μg/mL
CCCC(NC)C(=O)Nc1ccc(-c2ccc(Cl)c(Cl)c2)cc1.Cl (racemic) [Compound 34, (R)/(S)-N-(3′,4′-dichloro-[1,1′-biphenyl]-4-yl)-2-(methylamino)pentanamide hydrochloride] | 8 µg/mL | <4 µg/mL | <4 µg/mL | 8 µg/mL | <4 µg/mL | <4 µg/mL | 32 µg/mL | <4 µg/mL | <4 µg/mL | <4 µg/mL | 2~8 μg/mL | 8~32 μg/mL | 4~16 μg/mL | <4 µg/mL | 8~32 μg/mL
CCCCC(N)C(=O)NCCc1ccc(-c2ccc(C(F)(F)F)cc2)cc1.Cl (racemic) [Compound 78, (R)/(S)-2-amino-N-(2-(4′-(trifluoromethyl)-[1,1′-biphenyl]-4-yl)ethyl)hexanamide hydrochloride] | 16 µg/mL | <4 µg/mL | >64 µg/mL | 8 µg/mL | <4 µg/mL | <4 µg/mL | 16 µg/mL | 8 µg/mL | 8 µg/mL | 8 µg/mL | 2~8 μg/mL | 4~16 μg/mL | 4~16 μg/mL | 8 µg/mL | 4~16 μg/mL
CCC(NC)C(=O)NCCc1ccc(-c2ccc(OC(F)(F)F)cc2)cc1.Cl (racemic) [Compound 89, (R)/(S)-2-(methylamino)-N-(2-(4′-(trifluoromethoxy)-[1,1′-biphenyl]-4-yl)ethyl)butanamide hydrochloride] | >64 µg/mL | 16 µg/mL | 16 µg/mL | 16 µg/mL | <4 µg/mL | 16 µg/mL | 32 µg/mL | 16 µg/mL | 16 µg/mL | 32 µg/mL | 8~32 μg/mL | 8~32 μg/mL | 8~32 μg/mL | 32 µg/mL | 8~32 μg/mL
CCCCC(N)C(=O)NCc1ccc(-c2ccc(Cl)c(Cl)c2)cc1.Cl (racemic) [Compound 46, (R)/(S)-2-amino-N-((3′,4′-dichloro-[1,1′-biphenyl]-4-yl)methyl)hexanamide hydrochloride] | 16 µg/mL | 8 µg/mL | 8 µg/mL | 32 µg/mL | 4 µg/mL | 8 µg/mL | 32 µg/mL | 8 µg/mL | 8 µg/mL | 8 µg/mL | 0.5~4 μg/mL | 2~8 μg/mL | 2~8 μg/mL | 8 µg/mL | 2~8 μg/mL
CCC(N)C(=O)NCCc1ccc(-c2ccc(OC(F)(F)F)cc2)cc1.Cl (racemic) [Compound 79, (R)/(S)-2-amino-N-(2-(4′-(trifluoromethoxy)-[1,1′-biphenyl]-4-yl)ethyl)butanamide hydrochloride] | 64 µg/mL | 16 µg/mL | 16 µg/mL | 16 µg/mL | <4 µg/mL | 16 µg/mL | 32 µg/mL | 16 µg/mL | 8 µg/mL | 16 µg/mL | 8~32 μg/mL | 8~32 μg/mL | 8~32 μg/mL | 16 µg/mL | 8~32 μg/mL
CCC(NC)C(=O)NCCc1ccc(-c2ccc(C(F)(F)F)cc2)cc1.Cl (racemic) [Compound 86, (R)/(S)-2-(methylamino)-N-(2-(4′-(trifluoromethyl)-[1,1′-biphenyl]-4-yl)ethyl)butanamide hydrochloride] | 64 µg/mL | 32 µg/mL | 16 µg/mL | 32 µg/mL | <4 µg/mL | 16 µg/mL | 64 µg/mL | 16 µg/mL | 16 µg/mL | 32 µg/mL | 8~32 μg/mL | 16~64 μg/mL | 16~64 μg/mL | 32 µg/mL | 16~64 μg/mL
CCCC(NC)C(=O)NCCc1ccc(-c2ccc(Cl)c(Cl)c2)cc1.Cl (racemic) [Compound 84, (R)/(S)-N-(2-(3′,4′-dichloro-[1,1′-biphenyl]-4-yl)ethyl)-2-(methylamino)pentanamide hydrochloride] | 32 µg/mL | 16 µg/mL | 16 µg/mL | >32 µg/mL | 8 µg/mL | 16 µg/mL | >32 µg/mL | 16 µg/mL | 16 µg/mL | 16 µg/mL | 2~8 μg/mL | 4~1 μg/mL | 4~1 μg/mL | 16 µg/mL | 4~1 μg/mL
CCC(NC)C(=O)Nc1ccc(-c2ccc(Cl)c(Cl)c2)cc1.Cl (racemic) [Compound 33, (R)/(S)-N-(3′,4′-dichloro-[1,1′-biphenyl]-4-yl)-2-(methylamino)butanamide hydrochloride] | 16 µg/mL | 8 µg/mL | <4 µg/mL | 8 µg/mL | <4 µg/mL | <4 µg/mL | 16 µg/mL | <4 µg/mL | <4 µg/mL | 8 µg/mL | 4~16 μg/mL | 8~32 μg/mL | 8~32 μg/mL | <4 µg/mL | 8~32 μg/mL
